# From patent US20250074891A1 (Anaxis Pharma Pty Ltd., priority 2021, published 2025)
# Experiments:
# Settings in all cases: Table 35
# [1] = molecular target: RIP3 (Homo sapiens (Human), UniProt Q9Y572); assay: KINOMEscan binding assay, RIP3
# Protocol: (§1) Kinase assays. For most assays, kinase-tagged T7 phage strains were grown in parallel in 24-well blocks in an E. coli host derived from the BL21 strain. E. coli were grown to log-phase and infected with T7 phage from a frozen stock (multiplicity of infection=0.4) and incubated with shaking at 32° C. until lysis (90-150 minutes).
# (§2) The Hill Slope was set to −1.
# [2] = molecular target: MLKL (full length) (Homo sapiens (Human), UniProt Q8NB16); assay: KINOMEscan binding assay, MLKL (full length)
# Chain of MLKL (full length) (Q8NB16 whole entry): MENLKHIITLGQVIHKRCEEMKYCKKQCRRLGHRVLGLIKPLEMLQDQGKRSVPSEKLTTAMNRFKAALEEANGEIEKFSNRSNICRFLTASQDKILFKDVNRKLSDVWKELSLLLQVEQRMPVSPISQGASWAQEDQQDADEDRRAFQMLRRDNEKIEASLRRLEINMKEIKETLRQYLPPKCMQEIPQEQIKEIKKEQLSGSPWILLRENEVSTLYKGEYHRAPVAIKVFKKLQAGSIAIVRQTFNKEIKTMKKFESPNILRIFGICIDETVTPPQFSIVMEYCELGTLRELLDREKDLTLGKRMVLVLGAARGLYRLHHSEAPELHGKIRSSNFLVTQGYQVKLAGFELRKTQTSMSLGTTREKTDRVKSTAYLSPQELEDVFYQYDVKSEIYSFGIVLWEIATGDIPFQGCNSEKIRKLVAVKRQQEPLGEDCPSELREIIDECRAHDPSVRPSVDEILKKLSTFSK
# Protocol: as §1, §2
# [3] = molecular target: RIP1 (Homo sapiens (Human), UniProt Q13546); assay: KINOMEscan binding assay, RIP1
# Chain of RIP1 (Q13546 whole entry): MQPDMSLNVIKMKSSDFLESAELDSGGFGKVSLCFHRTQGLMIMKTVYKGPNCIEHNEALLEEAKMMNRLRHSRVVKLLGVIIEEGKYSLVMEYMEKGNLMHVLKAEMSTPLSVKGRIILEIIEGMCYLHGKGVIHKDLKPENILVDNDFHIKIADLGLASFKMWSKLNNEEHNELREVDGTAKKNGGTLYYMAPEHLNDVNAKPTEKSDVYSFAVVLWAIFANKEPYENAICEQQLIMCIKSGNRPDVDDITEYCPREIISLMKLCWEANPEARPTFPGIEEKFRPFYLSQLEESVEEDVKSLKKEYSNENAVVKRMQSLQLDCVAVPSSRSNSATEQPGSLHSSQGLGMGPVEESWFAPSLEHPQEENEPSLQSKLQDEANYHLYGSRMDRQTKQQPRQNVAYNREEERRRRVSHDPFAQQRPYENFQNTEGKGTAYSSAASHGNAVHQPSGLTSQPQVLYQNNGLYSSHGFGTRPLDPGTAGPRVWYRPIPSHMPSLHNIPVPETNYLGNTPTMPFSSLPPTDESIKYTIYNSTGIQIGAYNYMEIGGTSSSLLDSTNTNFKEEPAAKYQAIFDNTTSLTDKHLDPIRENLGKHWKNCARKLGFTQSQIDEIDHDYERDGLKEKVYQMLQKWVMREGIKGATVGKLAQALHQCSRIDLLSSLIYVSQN
# Chain of RIP3 (Q9Y572 whole entry): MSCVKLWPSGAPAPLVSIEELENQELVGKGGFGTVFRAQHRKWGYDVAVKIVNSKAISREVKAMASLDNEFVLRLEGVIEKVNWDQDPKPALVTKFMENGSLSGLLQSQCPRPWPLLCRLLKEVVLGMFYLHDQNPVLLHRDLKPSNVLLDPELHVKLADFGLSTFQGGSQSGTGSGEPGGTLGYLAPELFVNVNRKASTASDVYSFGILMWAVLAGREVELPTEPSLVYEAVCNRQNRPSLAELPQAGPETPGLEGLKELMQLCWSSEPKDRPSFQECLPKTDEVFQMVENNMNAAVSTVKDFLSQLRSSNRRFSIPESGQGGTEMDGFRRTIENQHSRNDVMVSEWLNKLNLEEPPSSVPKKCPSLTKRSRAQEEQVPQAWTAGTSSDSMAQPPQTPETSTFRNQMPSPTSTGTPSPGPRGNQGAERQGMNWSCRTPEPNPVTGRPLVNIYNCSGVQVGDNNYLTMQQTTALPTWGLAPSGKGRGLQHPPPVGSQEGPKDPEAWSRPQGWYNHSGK
Kd [1] [µM],Kd [2] [µM],Kd [3] [µM],Compound
> 30,< 0.01,> 30,"NC(=O)c1c(-c2ccc(NS(=O)(=O)CC(F)(F)F)c(OCc3ccc(F)cc3)c2)n[nH]c1Nc1cccc(C(F)F)n1 [Compound 173, 5-((6-(difluoromethyl)pyridine-2-yl)amino)-3-(3-((4-fluorobenzyl)oxy)-4-((2,2,2-trifluoroethyl)sulfonamido)phenyl)-1H-pyrazole-4-carboxamide]"
> 30,< 0.01,> 30,"NC(=O)c1c(-c2ccc(NS(=O)(=O)CC(F)(F)F)c(OCc3ccc(F)c(F)c3)c2)n[nH]c1Nc1cnccn1 [Compound 175, 3-(3-((3,4-difluorobenzyl)oxy)-4-((2,2,2-trifluoroethyl)sulfonamido)phenyl)-5-(pyrazin-2-ylamino)-1H-pyrazole-4-carboxamide]"
> 30,< 0.01,> 30,"NC(=O)c1c(-c2ccc(NS(=O)(=O)CC(F)(F)F)c(OCc3ccc(F)cc3)c2)n[nH]c1Nc1ccc(C(F)(F)F)nc1 [Compound 176, 3-(3-((4-fluorobenzyl)oxy)-4-((2,2,2-trifluoroethyl)sulfonamido)phenyl)-5-((6-(trifluoromethyl)pyridine-3-yl)amino)-1H-pyrazole-4-carboxamide]"
> 30,< 0.01,> 30,"NC(=O)c1c(-c2ccc(NS(=O)(=O)C(F)F)c(Oc3ccc(F)cc3)c2)n[nH]c1Nc1cnccn1 [Compound 177, 3-(4-((difluoromethyl)sulfonamido)-3-(4-fluorophenoxy)phenyl)-5-(pyrazin-2-ylamino)-1H-pyrazole-4-carboxamide]"
> 30,< 0.01,> 30,"NC(=O)c1c(-c2ccc(NS(=O)(=O)CC(F)F)c(OCc3ccc(F)cc3)c2)n[nH]c1Nc1cccc(C(F)(F)F)n1 [Compound 178, 3-(4-((2,2-difluoroethyl)sulfonamido)-3-((4-fluorobenzyl)oxy)phenyl)-5-((6-(trifluoromethyl)pyridine-2-yl)amino)-1H-pyrazole-4-carboxamide]"
> 30,< 0.01,> 30,"CCS(=O)(=O)Nc1ccc(-c2n[nH]c(Nc3cccc(C(F)F)n3)c2C(N)=O)cc1OCc1ccc(F)cc1 [Compound 179, 5-((6-(difluoromethyl)pyridine-2-yl)amino)-3-(4-(ethylsulfonamido)-3-((4-fluorobenzyl)oxy)phenyl)-1H-pyrazole-4-carboxamide]"
> 30,< 0.01,> 30,"NC(=O)c1c(-c2ccc(NS(=O)(=O)CC(F)F)c(OCc3ccc(F)cc3)c2)n[nH]c1Nc1cnccn1 [Compound 180, 3-(4-((2,2-difluoroethyl)sulfonamido)-3-((4-fluorobenzyl)oxy)phenyl)-5-(pyrazin-2-ylamino)-1H-pyrazole-4-carboxamide]"
> 30,< 0.01,> 30,"Cc1cnc(Nc2[nH]nc(-c3ccc(NS(=O)(=O)CCC(F)(F)F)c(OCc4ccc(F)cc4)c3)c2C(N)=O)cn1 [Compound 183, 3-(3-((4-fluorobenzyl)oxy)-4-((3,3,3-trifluoropropyl)sulfonamido)phenyl)-5-((5-methylpyrazin-2-yl)amino)-1H-pyrazole-4-carboxamide]"
> 30,< 0.01,> 30,"NC(=O)c1c(-c2ccc(NS(=O)(=O)CCC(F)(F)F)c(OCc3ccc(F)cc3)c2)n[nH]c1Nc1cnccn1 [Compound 184, 3-(3-((4-fluorobenzyl)oxy)-4-((3,3,3-trifluoropropyl)sulfonamido)phenyl)-5-(pyrazin-2-ylamino)-1H-pyrazole-4-carboxamide]"
> 30,< 0.01,> 30,"CCS(=O)(=O)Nc1ccc(-c2n[nH]c(Nc3cnccn3)c2C(N)=O)cc1Oc1ccc(Cl)cc1 [Compound 185, 3-(3-(4-chlorophenoxy)-4-(ethylsulfonamido)phenyl)-5-(pyrazin-2-ylamino)-1H-pyrazole-4-carboxamide]"
> 30,< 0.01,> 30,"NC(=O)c1c(-c2ccc(NS(=O)(=O)CC(F)(F)F)c(OCc3ccc(F)cc3)c2)n[nH]c1Nc1ccnc(C(F)(F)F)n1 [Compound 186, 3-(3-((4-fluorobenzyl)oxy)-4-((2,2,2-trifluoroethyl)sulfonamido)phenyl)-5-((2-(trifluoromethyl)pyrimidin-4-yl)amino)-1H-pyrazole-4-carboxamide]"
> 30,< 0.01,> 30,"NC(=O)c1c(-c2ccc(NS(=O)(=O)C(F)F)c(OCc3ccc(F)cc3)c2)n[nH]c1Nc1ccc(C(F)(F)F)nc1 [Compound 188, 3-(4-((difluoromethyl)sulfonamido)-3-((4-fluorobenzyl)oxy)phenyl)-5-((6-(trifluoromethyl)pyridine-3-yl)amino)-1H-pyrazole-4-carboxamide]"
> 30,< 0.01,> 30,"COc1cnc(Nc2[nH]nc(-c3ccc(NS(=O)(=O)C(F)F)c(OCc4ccc(Cl)cc4)c3)c2C(N)=O)cn1 [Compound 190, 3-(3-((4-chlorobenzyl)oxy)-4-((difluoromethyl)sulfonamido)phenyl)-5-((5-methoxypyrazin-2-yl)amino)-1H-pyrazole-4-carboxamide]"
> 30,< 0.01,> 30,"COc1cnc(Nc2[nH]nc(-c3ccc(NS(=O)(=O)C(F)F)c(OCc4ccc(F)cc4)c3)c2C(N)=O)cn1 [Compound 191, 3-(4-((difluoromethyl)sulfonamido)-3-((4-fluorobenzyl)oxy)phenyl)-5-((5-methoxypyrazin-2-yl)amino)-1H-pyrazole-4-carboxamide]"
> 30,< 0.01,> 30,"CCS(=O)(=O)Nc1ccc(-c2n[nH]c(Nc3cnccn3)c2C(N)=O)cc1O[C@H](C)c1ccc(F)cc1 [Compound 193, (R)-3-(4-(ethylsulfonamido)-3-(1-(4-fluorophenyl)ethoxy)phenyl)-5-(pyrazin-2-ylamino)-1H-pyrazole-4-carboxamide]"
> 30,< 0.01,> 30,CCS(=O)(=O)Nc1ccc(-c2n[nH]c(Nc3ccc(C(F)(F)F)nc3)c2C(N)=O)cc1OCc1ccc(F)cc1 [Compound 194]
> 30,< 0.01,> 30,"CCS(=O)(=O)Nc1ccc(-c2n[nH]c(Nc3ccnc(C(F)(F)F)n3)c2C(N)=O)cc1OCc1ccc(F)cc1 [Compound 195, 3-(4-(ethylsulfonamido)-3-((4-fluorobenzyl)oxy)phenyl)-5-((2-(trifluoromethyl)pyrimidin-4-yl)amino)-1H-pyrazole-4-carboxamide]"
> 30,< 0.01,> 30,"CCS(=O)(=O)Nc1ccc(-c2n[nH]c(Nc3cnccn3)c2C(N)=O)c(OCc2ccc(Cl)cc2)c1 [Compound 198, 3-(2-((4-chlorobenzyl)oxy)-4-(ethylsulfonamido)phenyl)-5-(pyrazin-2-ylamino)-1H-pyrazole-4-carboxamide]"
> 30,< 0.01,> 30,"CCS(=O)(=O)Nc1ccc(-c2n[nH]c(Nc3cnccn3)c2C(N)=O)cc1O[C@@H](C)c1ccc(F)cc1 [Compound 199, (S)-3-(4-(ethylsulfonamido)-3-(1-(4-fluorophenyl)ethoxy)phenyl)-5-(pyrazin-2-ylamino)-1H-pyrazole-4-carboxamide]"
> 30,< 0.01,> 30,CCS(=O)(=O)Nc1ccc(-c2n[nH]c(Nc3ccccn3)c2C(N)=O)c(OCc2ccc(F)cc2)c1 [Compound 201]
> 30,< 0.01,> 30,"NC(=O)c1c(-c2ccc(NS(=O)(=O)C(F)F)c(OCc3ccc(F)cc3)c2)n[nH]c1Nc1cnccn1 [Compound 202, 3-(4-((difluoromethyl)sulfonamido)-3-((4-fluorobenzyl)oxy)phenyl)-5-(pyrazin-2-ylamino)-1H-pyrazole-4-carboxamide]"
> 30,< 0.01,> 30,"CCS(=O)(=O)Nc1ccc(-c2n[nH]c(Nc3cnccn3)c2C(N)=O)cc1Oc1cccc(F)c1 [Compound 204, 3-(4-(ethylsulfonamido)-3-(3-fluorophenoxy)phenyl)-5-(pyrazin-2-ylamino)-1H-pyrazole-4-carboxamide]"
> 30,< 0.01,> 30,NC(=O)c1c(-c2ccc(NS(=O)(=O)C(F)(F)F)cc2)n[nH]c1Nc1cccc(C(F)(F)F)n1 [Compound 205]
> 30,< 0.01,> 30,"CCS(=O)(=O)Nc1ccc(-c2n[nH]c(Nc3cnccn3)c2C(N)=O)cc1OCCc1ccccc1Cl [Compound 206, 3-(3-(2-chlorophenethoxy)-4-(ethylsulfonamido)phenyl)-5-(pyrazin-2-ylamino)-1H-pyrazole-4-carboxamide]"
> 30,< 0.01,> 30,"CCS(=O)(=O)Nc1ccc(-c2n[nH]c(Nc3cnccn3)c2C(N)=O)cc1OCCc1ccccc1 [Compound 210, 3-(4-(ethylsulfonamido)-3-phenethoxyphenyl)-5-(pyrazin-2-ylamino)-1H-pyrazole-4-carboxamide]"
> 30,< 0.01,> 30,"CCS(=O)(=O)Nc1ccc(-c2n[nH]c(Nc3cnccn3)c2C(N)=O)cc1OCCc1ccccc1F [Compound 211, 3-(4-(ethylsulfonamido)-3-(2-fluorophenethoxy)phenyl)-5-(pyrazin-2-ylamino)-1H-pyrazole-4-carboxamide]"
> 30,0.01 to 1,> 30,CCS(=O)(=O)Nc1ccc(-c2n[nH]c(Nc3cc(C(F)(F)F)ccn3)c2C(N)=O)cc1OCc1ccc(F)cc1 [Compound 213]
> 30,< 0.01,> 30,NC(=O)c1c(-c2ccc(NS(=O)(=O)C(F)F)c(OCc3ccc(F)cc3)c2)n[nH]c1Nc1cccc(C(F)(F)F)n1 [Compound 217]
